Reference: PubChem BioAssay AID1896 (NMMLSC, 2009)
The source made the active and inactive calls. How the calls were made is not given here.

target: Mitogen-activated protein kinase kinase kinase 3 (Homo sapiens) (UniProt Q99759); assay: MEKK3 PB1-MEK5 interaction blockers – biochemical, bead multiplex flow cytometry, wildtype, dose response (AID 1896); details: bead-based multiplex flow cytometry, MEK5-MEKK3 PB1 binding
Sequence (Q99759 whole entry, looked up): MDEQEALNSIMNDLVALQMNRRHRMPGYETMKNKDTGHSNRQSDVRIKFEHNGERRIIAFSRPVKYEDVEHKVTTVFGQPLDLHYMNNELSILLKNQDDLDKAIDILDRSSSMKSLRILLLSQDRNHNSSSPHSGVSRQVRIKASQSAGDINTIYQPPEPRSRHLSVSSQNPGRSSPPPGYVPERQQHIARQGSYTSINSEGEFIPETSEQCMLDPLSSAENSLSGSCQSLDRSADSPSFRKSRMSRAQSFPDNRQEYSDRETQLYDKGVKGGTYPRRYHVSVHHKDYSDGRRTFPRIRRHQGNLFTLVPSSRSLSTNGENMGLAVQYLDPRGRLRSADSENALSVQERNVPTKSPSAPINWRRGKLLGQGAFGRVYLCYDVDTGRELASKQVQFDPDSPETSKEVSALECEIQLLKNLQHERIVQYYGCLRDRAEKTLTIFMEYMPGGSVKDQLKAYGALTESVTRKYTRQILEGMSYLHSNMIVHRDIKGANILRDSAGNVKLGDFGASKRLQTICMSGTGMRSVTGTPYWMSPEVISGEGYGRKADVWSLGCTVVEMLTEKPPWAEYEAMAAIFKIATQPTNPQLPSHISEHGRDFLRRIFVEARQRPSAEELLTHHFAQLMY

Row | EC50 | SMILES
1 | > 30 µM (inactive) | CC(C)n1cc(CN2CCC(C(=O)Nc3cccc(-c4cccc(Cl)c4)c3)CC2)cn1
2 | > 30 µM (inactive) | FC(F)(F)c1cccc(NC(=S)N(CCCN2CCCC2)Cc2cccn2Cc2ccc(Cl)cc2)c1
3 | > 30 µM (inactive) | CCCCCCCCCCOC(=O)Cn1c(COc2ccccc2OC)[n+](C)c2ccccc21
4 | > 30 µM (inactive) | Cc1ccc(CN2CCSc3ccc(C(=O)NC4CCN(Cc5ccccc5)CC4)cc32)cc1
5 | 8.73 µM | CNc1nc(-c2c[nH]c3ccccc23)cs1
6 | 3.93 µM | CCN1C(c2ccccc2)=C(c2ccccc2)S/C1=C\C=C1/SC(=S)N(C)C1=O
7 | 5.57 µM | Cc1cc2ccccc2n1CCNC(=O)c1ccccc1
8 | > 30 µM (inactive) | COc1ccc(-c2[nH]ncc2CN2CCCCCCC2)c(OC)c1
9 | > 30 µM (inactive) | C#CCOCCOCCOCCNc1nc(N2CCN(C(=O)[C@H]([C@@H](C)CC)n3cc([C@@H](N)Cc4ccc(O)cc4)nn3)CC2)nc(N2CCN(C(=O)[C@H](Cc3cc4ccccc4[nH]3)n3cc([C@@H](N)C(C)CC)nn3)CC2)n1 (stereo not given in full)
10 | > 30 µM (inactive) | CCCN1C(=O)/C(=C\C=C2/Sc3ccccc3N2CC)SC1=S
11 | > 30 µM (inactive) | C=CCN1C(=O)/C(=C/c2ccc(-c3ccc(F)cc3)o2)SC1=S
12 | > 30 µM (inactive) | COc1ccccc1N(CN1C(=O)c2ccccc2C1=O)C(=O)c1cccc(C)c1
13 | > 30 µM (inactive) | COc1cc2nc(N3CCN(c4cc(C)ccc4C)CC3)nc(N)c2cc1OC
14 | 0.27 µM | CCC(=C/c1sc2ccc3ccccc3c2[n+]1C)/C=C1\Sc2ccc3ccccc3c2N1C
15 | 8.75 µM | COc1ccc2nc(C)cc(N/N=C/c3ccc(F)cc3)c2c1
16 | 5.37 µM | COc1cccc(OC)c1-c1nn2c(-c3cc(-c4ccccc4)n[nH]3)nnc2s1
17 | > 30 µM (inactive) | CCN(CC)CCOC(=O)c1ccc(N/C=C(/C#N)c2nc(-c3ccc4c(c3)OCO4)cs2)cc1
18 | > 30 µM (inactive) | CCOC(=O)N1CCN(c2c(N3CCN(c4ccccc4F)CC3)c(=O)c2=O)CC1
19 | > 30 µM (inactive) | N=C(N)SCc1cn(-c2ccccc2)nc1-c1ccc(Br)cc1
20 | > 30 µM (inactive) | CCCN(CCC)CCNC(=O)c1cc2c(-c3ccc(Cl)cc3)nn(C)c2s1
21 | > 30 µM (inactive) | CCN1CCN(Cc2ccc(NC(=O)c3cc(NC(=O)C(=O)c4c[nH]c5ccccc45)cc(OC)c3)cc2C(F)(F)F)CC1
22 | 1.13 µM | COc1ccc(-n2nc3c(N)n[nH]c3cc2=O)cc1

Row | EC50 | SMILES
23 | > 30 µM (inactive) | CCN(CC)CCOC(=O)c1ccc(N/C=C(/C#N)c2nc(-c3ccc(OC)cc3)cs2)cc1
24 | 2.83 µM | CCC(/C=C1\Sc2ccc(OC)cc2N1CCO)=C\c1sc2ccc(OC)cc2[n+]1CCO
25 | > 30 µM (inactive) | COc1ccc(Cn2cc3c(-c4ccc(F)cc4)nnc-3c3cc(OC)c(OC)cc32)cc1
26 | > 30 µM (inactive) | Cc1c2cc(O)c(=O)cc-2oc2cc(O)c(O)cc12
27 | > 30 µM (inactive) | CCOC(=O)c1c(CSC(=N)N)n(-c2ccc(C)cc2)c2cc(Br)c(OC(C)=O)cc12
28 | > 30 µM (inactive) | CCOC(=O)c1c(-c2ccc(-c3ccccc3)cc2)csc1NC(=O)CNCCN(C)C
29 | > 30 µM (inactive) | C#CCOCCOCCOCCNc1nc(N2CCN(C(=O)[C@H](Cc3cc4ccccc4[nH]3)n3cc([C@@H](N)CC(C)C)nn3)CC2)nc(N2CCN(C(=O)[C@H](Cc3cc4ccccc4[nH]3)n3cc([C@@H](N)CC(C)C)nn3)CC2)n1
30 | 3.06 µM | Nc1ccc(N)c(C(=O)O)c1
31 | > 30 µM (inactive) | COc1ccc2nc3cc(Cl)ccc3c(Nc3cc(C(C)C)c(O)cc3C)c2c1
32 | > 30 µM (inactive) | CSc1cccc(NC(=S)N(CCCN2CCCC2)Cc2cccn2Cc2ccc(Cl)cc2)c1
33 | > 30 µM (inactive) | C#CCOCCOCCOCCNc1nc(N2CCN(C(=O)[C@H]([C@@H](C)CC)n3cc([C@@H](N)CC(C)C)nn3)CC2)nc(N2CCN(C(=O)[C@H](Cc3cc4ccccc4[nH]3)n3cc([C@@H](N)CC(C)C)nn3)CC2)n1
34 | 8.28 µM | C#CCOCCOCCOCCNc1nc(N2CCN(C(=O)[C@H]([C@@H](C)CC)n3cc([C@@H](N)CO)nn3)CC2)nc(N2CCN(C(=O)[C@H](Cc3cc4ccccc4[nH]3)n3cc([C@@H](N)Cc4ccc(O)cc4)nn3)CC2)n1
35 | > 30 µM (inactive) | CCCCCc1cc(=O)oc2c(C(CCN3CCCCC3)c3ccc4c(c3)OCO4)c(OC)cc(OC)c12 (stereo not given)
36 | > 30 µM (inactive) | CCc1ccc(-c2nn(-c3ccccc3)cc2CSC(=N)N)cc1
37 | > 30 µM (inactive) | Cc1ccc(-c2c[n+](CC(=O)Nc3nc(-c4ccc(F)cc4)cs3)c3n2CCC3)cc1
38 | > 30 µM (inactive) | O=C(OCC1O[C@@H](OC(=O)c2cc(O)c(O)c(O)c2)[C@@H](OC(=O)c2cc(O)c(O)c(O)c2)[C@@H](OC(=O)c2cc(O)c(O)c(O)c2)[C@@H]1OC(=O)c1cc(O)c(O)c(O)c1)c1cc(O)c(O)c(O)c1 (stereo not given in full)
39 | > 30 µM (inactive) | CCn1cc(C(=O)O)c(=O)c2cc(F)c(N3CCN(C(=S)NC(=O)c4ccc(Br)cc4)CC3)cc21
40 | > 30 µM (inactive) | CCN1CCN(CCNC(=O)c2ccc(/C=C3/Sc4ccccc4N(Cc4cccc(C)c4)C3=O)cc2)CC1
41 | > 30 µM (inactive) | C#CCOCCOCCOCCNc1nc(N2CCN(C(=O)[C@H](Cc3cc4ccccc4[nH]3)n3cc([C@@H](N)C(C)CC)nn3)CC2)nc(N2CCN(C(=O)[C@H](Cc3cc4ccccc4[nH]3)n3cc([C@@H](N)Cc4ccc(O)cc4)nn3)CC2)n1 (stereo not given in full)
42 | > 30 µM (inactive) | Cc1ccnc(NC(=O)C2(c3cccs3)CCOCC2)c1
43 | > 30 µM (inactive) | COc1ccc(CNC[C@@H](CCCCN(C)Cc2ccc(OC)cc2)N2C[C@H](c3ccccc3)N(CCc3ccc(Cl)c(Cl)c3)C(=O)C2=O)cc1
44 | > 30 µM (inactive) | CCCCCCCCCCCCCCCC[n+]1cccc2ccccc21

Second part, the compound before the results:

Row | SMILES | EC50
45 | COc1ccc(N2CC(C(=O)Nc3nnc(SCc4ccccn4)s3)CC2=O)cc1 (stereo not given) | > 30 µM (inactive)
46 | CCCCCc1cc(=O)oc2c(C(CCN3CCCC(C)C3)c3ccc4c(c3)OCO4)c(OC)cc(OC)c12 (stereo not given) | > 30 µM (inactive)
47 | Cc1cc(N=Nc2ccc(C)c(N=Nc3cc(C)c(N)cc3N)c2)c(N)cc1N | > 30 µM (inactive)
48 | O=C(c1cc(COc2c(F)cccc2F)on1)N1C[C@H]2CC[C@H]1C2 | > 30 µM (inactive)
49 | CCN1CCN(Cc2ccc(NC(=O)c3cc(NC(=O)c4cncc(-c5cccs5)c4)cc(OC)c3)cc2C(F)(F)F)CC1 | > 30 µM (inactive)
50 | CN(C)CCCN(C(=O)c1ccc2c(c1)CCCC2)c1nc2ccc(Cl)cc2s1 | > 30 µM (inactive)
51 | CC(C)N=c1cc2n(-c3ccc(Cl)cc3)c3ccccc3nc-2cc1Nc1ccc(Cl)cc1 | > 30 µM (inactive)
52 | CN(c1ccccc1)c1ccc(/C=c2\s/c(=C(/C#N)C(=O)C(C)(C)C)n(Cc3ccco3)c2=O)cc1 | 0.34 µM
53 | CCc1ccc(Nc2n[n+](-c3ccccc3)c(-c3cc(OC)c(OC)cc3Br)s2)cc1 | > 30 µM (inactive)
54 | CCCCCc1cc(=O)oc2c(C(CCN3CCCCC3)c3ccc(OC)cc3)c(OC)cc(OC)c12 (stereo not given) | > 30 µM (inactive)
55 | Cc1nc(Nc2cnc(/C=C/c3cc(C(=O)Nc4cccc(C(F)(F)F)c4)ccc3C)cn2)cc(N2CCNCC2)n1 | 25.2 µM
56 | Cc1nc(N)sc1-c1csc(Nc2ncccn2)n1 | > 30 µM (inactive)
57 | CCN(CC)CCOC(=O)c1ccc(NC(=O)c2cn(-c3ccccc3)nc2-c2cccs2)cc1 | > 30 µM (inactive)
58 | CCc1ccc(Nc2n[n+](-c3ccccc3)c(-c3ccc(OC)c(Br)c3)s2)cc1 | > 30 µM (inactive)
59 | CCN1/C(=C/C=C/C=C/C=C/c2sc3ccccc3[n+]2CC)Sc2ccccc21 | > 30 µM (inactive)
60 | CCN1C(c2ccccc2)=C(c2ccccc2)S/C1=C/C=C1\SC(=S)N(C)C1=O | 3.4 µM

Row | SMILES | EC50
61 | CN(C)c1ccc(/C=C/C=C2/SC(=S)N(c3ccccc3)C2=O)cc1 | 1.21 µM
62 | C#CCOCCOCCOCCNc1nc(N2CCN(C(=O)[C@H](CCCCN)n3cc([C@@H](N)CC(C)C)nn3)CC2)nc(N2CCN(C(=O)[C@H](Cc3cc4ccccc4[nH]3)n3cc([C@@H](N)Cc4ccc(O)cc4)nn3)CC2)n1 | > 30 µM (inactive)
63 | O=C1c2ccccc2-c2onc3ccc(NCCCn4ccnc4)c1c23 | > 30 µM (inactive)
64 | CCCCCCCCCCOC(=O)Cn1c(COc2cccc(C)c2)[n+](C)c2ccccc21 | > 30 µM (inactive)
65 | COc1ccc(C2NCCc3c2[nH]c2ccccc32)cc1CN1CCc2cc(OC)c(OC)cc2C1C (stereo not given) | > 30 µM (inactive)
66 | CS(=O)(=O)N1N=C(c2ccccc2)CC1c1ccc2c(c1)OCO2 (stereo not given) | > 30 µM (inactive)
67 | COc1ccc(-c2cc(C#N)nc(N3CCNCC3)n2)cc1 | > 30 µM (inactive)
68 | C#CCOCCOCCOCCNc1nc(N2CCN(C(=O)C(Cc3ccc(O)cc3)n3cc(C(N)CC(C)C)nn3)CC2)nc(N2CCN(C(=O)C(Cc3cc4ccccc4[nH]3)n3cc(C(N)C(C)CC)nn3)CC2)n1 (stereo not given) | > 30 µM (inactive)
69 | CC(=O)Nc1cccc2c1C(=O)N(c1cccc(C)c1)C2=O | > 30 µM (inactive)
70 | CNC[C@H](CC1CCCCC1)NC[C@H](Cc1ccccc1)NCCC12CC3CC(CC(C3)C1)C2 | > 30 µM (inactive)
71 | C#CCOCCOCCOCCNc1nc(N2CCN(C(=O)C([C@@H](C)CC)n3cc(C(N)COC(=O)C(F)(F)F)nn3)CC2)nc(N2CCN(C(=O)[C@H](CCCCN)n3cc(C(N)[C@H](C)CC)nn3)CC2)n1 (stereo not given in full) | > 30 µM (inactive)
72 | CCN(CC)CCOc1ccc2c(c1)C(=NNC(=O)c1ccccn1)c1cc(OCCN(CC)CC)ccc1-2 | > 30 µM (inactive)
73 | COc1ccc(CSc2n[nH]c(C)n2)cc1[N+](=O)[O-] | > 30 µM (inactive)
74 | COc1ccc2[nH]c3c(C)c4ccncc4c(C)c3c2c1 | > 30 µM (inactive)
75 | CN1CCN(CC(O)COc2ccc(C34CC5CC(CC(C5)C3)C4)cc2)CC1 (stereo not given) | > 30 µM (inactive)
76 | COCc1c(C#N)c(NCCc2ccccc2)nc(C)c1[N+](=O)[O-] | > 30 µM (inactive)

same assay, conditions: bead-based multiplex flow cytometry, MEK5-MEKK3 PB1 binding; measured here: Ki from EC50

Row | Ki | SMILES
77 | 7.47 µM | CNc1nc(-c2c[nH]c3ccccc23)cs1
78 | 3.36 µM | CCN1C(c2ccccc2)=C(c2ccccc2)S/C1=C\C=C1/SC(=S)N(C)C1=O
79 | 4.77 µM | Cc1cc2ccccc2n1CCNC(=O)c1ccccc1
80 | 0.23 µM | CCC(=C/c1sc2ccc3ccccc3c2[n+]1C)/C=C1\Sc2ccc3ccccc3c2N1C
81 | 7.49 µM | COc1ccc2nc(C)cc(N/N=C/c3ccc(F)cc3)c2c1
82 | 4.59 µM | COc1cccc(OC)c1-c1nn2c(-c3cc(-c4ccccc4)n[nH]3)nnc2s1
83 | 0.97 µM | COc1ccc(-n2nc3c(N)n[nH]c3cc2=O)cc1
84 | 2.42 µM | CCC(/C=C1\Sc2ccc(OC)cc2N1CCO)=C\c1sc2ccc(OC)cc2[n+]1CCO
85 | 2.62 µM | Nc1ccc(N)c(C(=O)O)c1
86 | 7.08 µM | C#CCOCCOCCOCCNc1nc(N2CCN(C(=O)[C@H]([C@@H](C)CC)n3cc([C@@H](N)CO)nn3)CC2)nc(N2CCN(C(=O)[C@H](Cc3cc4ccccc4[nH]3)n3cc([C@@H](N)Cc4ccc(O)cc4)nn3)CC2)n1

The next lines start with the compound.

Row | SMILES | Ki
87 | CN(c1ccccc1)c1ccc(/C=c2\s/c(=C(/C#N)C(=O)C(C)(C)C)n(Cc3ccco3)c2=O)cc1 | 0.29 µM
88 | Cc1nc(Nc2cnc(/C=C/c3cc(C(=O)Nc4cccc(C(F)(F)F)c4)ccc3C)cn2)cc(N2CCNCC2)n1 | 21.5 µM
89 | CCN1C(c2ccccc2)=C(c2ccccc2)S/C1=C/C=C1\SC(=S)N(C)C1=O | 2.91 µM
90 | CN(C)c1ccc(/C=C/C=C2/SC(=S)N(c3ccccc3)C2=O)cc1 | 1.03 µM
